Data as given in PMC5309245, “Discovery and Characterization of Diazenylaryl Sulfonic Acids as Inhibitors of Viral and Bacterial Neuraminidases” (Frontiers in Microbiology, 2017).

Experiments:
[1] = molecular target: IAV WSN/33 NA-wt (whole virus) (Influenza A virus, UniProt P03470); assay: biochemical; design: species or system influenza A virus A/WSN/1933 (H1N1); settings: for IC50: NA inhibition using FL assay IC50, IAV WSN/33
S. pneumoniae DSM20566 = assay: Microtiter broth microdilution assay, planktonic growth; assay type: cell-based, Streptococcus pneumoniae DSM20566; settings: 18 h, maximum 50 μM
[2] = molecular target: T1, S. pneumoniae DSM20566 NA (NanA) (Streptococcus pneumoniae, UniProt P62575); assay: FL NA inhibition assay, S. pneumoniae DSM20566; assay type: biochemical; settings: MUNANA substrate; for IC50: read-out: NA inhibition using FL assay IC50, S. p. DSM20566
T1 construct: host or cells: either rNanA from E. coli BL21(DE3) or total precipitated protein of S. pneumoniae DSM20566
T1 sequence (P62575 54-1035): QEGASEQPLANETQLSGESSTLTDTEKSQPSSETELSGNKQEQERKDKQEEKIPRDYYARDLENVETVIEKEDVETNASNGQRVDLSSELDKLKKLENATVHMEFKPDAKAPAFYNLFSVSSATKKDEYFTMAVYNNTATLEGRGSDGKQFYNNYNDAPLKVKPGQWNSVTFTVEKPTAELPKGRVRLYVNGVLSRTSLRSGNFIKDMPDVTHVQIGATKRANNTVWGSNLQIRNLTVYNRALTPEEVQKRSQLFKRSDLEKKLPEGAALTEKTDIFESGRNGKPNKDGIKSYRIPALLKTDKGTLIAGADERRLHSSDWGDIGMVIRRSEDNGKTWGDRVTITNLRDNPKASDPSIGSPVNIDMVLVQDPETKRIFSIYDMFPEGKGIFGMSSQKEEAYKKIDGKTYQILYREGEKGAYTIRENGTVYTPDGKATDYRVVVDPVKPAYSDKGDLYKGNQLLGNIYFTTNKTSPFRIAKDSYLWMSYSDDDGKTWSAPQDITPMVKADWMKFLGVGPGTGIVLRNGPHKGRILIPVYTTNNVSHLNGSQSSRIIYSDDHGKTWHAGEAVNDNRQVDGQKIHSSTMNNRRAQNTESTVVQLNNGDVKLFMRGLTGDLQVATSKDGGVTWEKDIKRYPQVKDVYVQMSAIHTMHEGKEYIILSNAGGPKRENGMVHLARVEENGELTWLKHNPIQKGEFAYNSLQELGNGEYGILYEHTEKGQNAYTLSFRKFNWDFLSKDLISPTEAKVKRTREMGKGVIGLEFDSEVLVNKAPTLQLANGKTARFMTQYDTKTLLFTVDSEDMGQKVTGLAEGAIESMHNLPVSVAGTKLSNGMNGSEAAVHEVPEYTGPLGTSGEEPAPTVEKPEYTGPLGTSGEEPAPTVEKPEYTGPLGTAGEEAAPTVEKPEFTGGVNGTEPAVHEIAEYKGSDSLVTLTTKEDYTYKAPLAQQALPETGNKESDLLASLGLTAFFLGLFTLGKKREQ

[3] = molecular target: IAV HK/68 NA (whole virus) (Influenza A virus, UniProt Q91MA2); assay: biochemical; design: species or system influenza A virus A/Hong Kong/68 (H3N2)
Sequence of IAV HK/68 NA (whole virus) (Q91MA2 whole entry, looked up): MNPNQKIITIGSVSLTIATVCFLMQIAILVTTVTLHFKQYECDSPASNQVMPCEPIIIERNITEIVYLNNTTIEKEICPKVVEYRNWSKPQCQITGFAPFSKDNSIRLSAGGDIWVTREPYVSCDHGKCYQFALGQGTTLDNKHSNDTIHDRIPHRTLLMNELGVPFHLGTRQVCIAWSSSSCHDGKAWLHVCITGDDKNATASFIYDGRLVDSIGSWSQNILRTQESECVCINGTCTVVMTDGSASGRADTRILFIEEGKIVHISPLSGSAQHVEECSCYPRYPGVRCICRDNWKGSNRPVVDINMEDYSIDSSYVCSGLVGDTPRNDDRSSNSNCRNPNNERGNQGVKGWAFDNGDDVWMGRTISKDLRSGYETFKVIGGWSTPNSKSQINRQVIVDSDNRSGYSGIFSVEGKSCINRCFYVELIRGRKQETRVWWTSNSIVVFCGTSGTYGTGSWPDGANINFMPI

influenza A virus WSN/33 = assay: microbe, parasite or virus in culture; assay type: cell-based, influenza A virus A/WSN/1933 (H1N1)
[4] = molecular target: T2, S. pneumoniae DSM20566 NA (Streptococcus pneumoniae, UniProt P62575); assay: HA-based NA inhibition assay, S. pneumoniae DSM20566; assay type: cell-based; settings: human erythrocytes
T2 construct: host or cells: either rNanA from E. coli BL21(DE3) or total precipitated protein of S. pneumoniae DSM20566
T2 sequence (P62575 54-1035): as the sequence (P62575 54-1035) above

human erythrocytes [5] = assay type: cell-based; settings: human erythrocytes, 2 h at 4°C
Method: (§1) Viral (whole virus) and bacterial NA activity as well as their inhibition were measured by using a fluorescence (FL) assay with the substrate 2′-(4-methylumbelliferyl)-α-D-N-acetylneuraminic acid sodium salt hydrate (MUNANA, 100 μM; Sigma-Aldrich GmbH, Taufkirchen, Germany), and/or a hemagglutination (HA)-based NA inhibition assay (HA assay) with human erythrocytes (Institute of Transfusion Medicine, University Hospital Jena, Jena, Germany), both assays as published recently (Richter et al., [2015]). Recombinant NanA (rNanA) and total precipitated bacterial protein of S. pneumoniae DSM20566 were used in FL and HA assays. Interference of the compounds with the FL signal (self-fluorescence and quenching) was excluded as described previously (Richter et al., [2015]). […] Each compound was tested at least three times in both NA inhibition assays.
Supplementary Table 1. Assay interference phenomena of test compounds in the HA-based […]
sample concentrations [µM] in viral HA-assay bacterial HA-assay […]
hem- prevention of erythrocyte hem- erythrocyte agglutinationa virus-induced lysisc agglutinationd lysise […]
cTest compounds lysed the human erythrocytes (2 h at 4°C). […]

human erythrocytes [6] = assay type: cell-based; settings: human erythrocytes, 4 h at 37°C and 12 h at 4°C
Method: as §1
Supplementary Table 1. […]
eTest compounds lysed the human erythrocytes (4 h at 37°C and 12 h at 4°C).

influenza A virus HK/68 = assay: microbe, parasite or virus in culture; assay type: cell-based, influenza A virus A/Hong Kong/68 (H3N2)
IAV 5258/09 NA = assay: Hemagglutination (HA)-based NA inhibition assay, IAV 5258/09; assay type: cell-based, influenza A virus A/Jena/5258/2009 (H1N1); settings: human erythrocytes
[7] = test system: S. pneumoniae DSM20566 biofilm; assay: Biofilm inhibition assay; assay type: cell-based, Streptococcus pneumoniae DSM20566; settings: 24 h, maximum 50 μM
[8] = test system: influenza A virus 8178/09; assay: microbe, parasite or virus in culture; assay type: cell-based, influenza A virus A/Jena/8178/2009 (H1N1)
in vitro = settings: dog

Sequence of IAV WSN/33 NA-wt (whole virus) (P03470 whole entry, looked up): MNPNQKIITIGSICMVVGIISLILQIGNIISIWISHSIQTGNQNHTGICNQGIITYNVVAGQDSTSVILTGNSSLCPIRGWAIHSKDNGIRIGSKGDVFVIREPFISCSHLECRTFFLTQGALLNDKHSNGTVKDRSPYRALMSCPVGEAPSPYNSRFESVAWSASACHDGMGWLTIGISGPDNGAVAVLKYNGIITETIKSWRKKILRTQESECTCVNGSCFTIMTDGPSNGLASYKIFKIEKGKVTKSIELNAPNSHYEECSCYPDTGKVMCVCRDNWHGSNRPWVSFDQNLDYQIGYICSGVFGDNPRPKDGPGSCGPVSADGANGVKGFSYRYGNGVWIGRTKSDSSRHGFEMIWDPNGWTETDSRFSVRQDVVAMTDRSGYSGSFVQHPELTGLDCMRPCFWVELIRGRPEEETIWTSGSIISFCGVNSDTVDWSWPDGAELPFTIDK

O=[N+]([O-])c1ccc(/N=N/c2c(O)ccc3cc(S(=O)(=O)O)ccc23)cc1 [Compound 11]
no: sample concentrations provoking erythrocyte lysis, viral HA-assay (human erythrocytes [5]) | sample concentrations provoking erythrocyte lysis, bacterial HA-assay (human erythrocytes [6])
33.1 ± 4.6 µM: IC50 [1]
Not active: 50% inhibitory concentration, S. pneumoniae DSM20566 planktonic growth (S. pneumoniae DSM20566) | 50% inhibitory concentration, influenza A virus WSN/33 (influenza A virus WSN/33) | NA inhibition using HA assay MIC, S. p. DSM20566 [4] | 50% inhibitory concentration, influenza A virus HK/68 (influenza A virus HK/68) | NA inhibition using HA assay MIC, IAV 5258/09 (IAV 5258/09 NA) | 50% inhibitory concentration, S. pneumoniae DSM20566 biofilm formation [7] | 50% inhibitory concentration, influenza A virus 8178/09 [8]
23.2 ± 13.1 µM: IC50 [2]
77.3 ± 10.6 µM: IC50 ([3]; NA inhibition using FL assay IC50, IAV HK/68)
> 100 µM: CC50 (in vitro)

O=S(=O)(O)c1ccc(/N=N/c2ccc(/N=N/c3c(O)c(S(=O)(=O)O)cc4cc(S(=O)(=O)O)ccc34)cc2)cc1 [Compound 9]
no: sample concentrations provoking erythrocyte lysis, viral HA-assay (human erythrocytes [5]) | sample concentrations provoking erythrocyte lysis, bacterial HA-assay (human erythrocytes [6])
Not active: 50% inhibitory concentration, S. pneumoniae DSM20566 planktonic growth (S. pneumoniae DSM20566) | NA inhibition using FL assay IC50, IAV HK/68 [3] | 50% inhibitory concentration, influenza A virus WSN/33 (influenza A virus WSN/33) | NA inhibition using HA assay MIC, S. p. DSM20566 [4] | 50% inhibitory concentration, influenza A virus HK/68 (influenza A virus HK/68) | NA inhibition using HA assay MIC, IAV 5258/09 (IAV 5258/09 NA) | 50% inhibitory concentration, S. pneumoniae DSM20566 biofilm formation [7] | 50% inhibitory concentration, influenza A virus 8178/09 [8]
22.7 ± 2.91 µM: IC50 [1]
> 100 µM: CC50 (in vitro)
32 ± 10.9 µM: IC50 [2]

O=[N+]([O-])c1ccc(/N=N/c2c(O)c(S(=O)(=O)O)cc3cc(S(=O)(=O)O)ccc23)cc1 [Compound 12]
Not active: NA inhibition using FL assay IC50, IAV WSN/33 [1] | 50% inhibitory concentration, S. pneumoniae DSM20566 planktonic growth (S. pneumoniae DSM20566) | NA inhibition using FL assay IC50, S. p. DSM20566 [2] | NA inhibition using FL assay IC50, IAV HK/68 [3] | 50% inhibitory concentration, influenza A virus WSN/33 (influenza A virus WSN/33) | NA inhibition using HA assay MIC, S. p. DSM20566 [4] | 50% inhibitory concentration, influenza A virus HK/68 (influenza A virus HK/68) | NA inhibition using HA assay MIC, IAV 5258/09 (IAV 5258/09 NA) | 50% inhibitory concentration, S. pneumoniae DSM20566 biofilm formation [7] | 50% inhibitory concentration, influenza A virus 8178/09 [8]
> 100 µM: CC50 (in vitro)
no: sample concentrations provoking erythrocyte lysis, viral HA-assay (human erythrocytes [5]) | sample concentrations provoking erythrocyte lysis, bacterial HA-assay (human erythrocytes [6])

O=S(=O)(O)c1cc2cccc(S(=O)(=O)O)c2c(O)c1/N=N/c1ccccc1 [Compound 17]
no: sample concentrations provoking erythrocyte lysis, viral HA-assay (human erythrocytes [5]) | sample concentrations provoking erythrocyte lysis, bacterial HA-assay (human erythrocytes [6])
Not active: NA inhibition using FL assay IC50, IAV WSN/33 [1] | 50% inhibitory concentration, S. pneumoniae DSM20566 planktonic growth (S. pneumoniae DSM20566) | NA inhibition using FL assay IC50, S. p. DSM20566 [2] | NA inhibition using FL assay IC50, IAV HK/68 [3] | 50% inhibitory concentration, influenza A virus WSN/33 (influenza A virus WSN/33) | NA inhibition using HA assay MIC, S. p. DSM20566 [4] | 50% inhibitory concentration, influenza A virus HK/68 (influenza A virus HK/68) | NA inhibition using HA assay MIC, IAV 5258/09 (IAV 5258/09 NA) | 50% inhibitory concentration, S. pneumoniae DSM20566 biofilm formation [7] | 50% inhibitory concentration, influenza A virus 8178/09 [8]
> 100 µM: CC50 (in vitro)

O=[N+]([O-])c1cccc(/N=N/c2c(O)c(S(=O)(=O)O)cc3cc(S(=O)(=O)O)ccc23)c1 [Compound 13]
> 100 µM: CC50 (in vitro)
no: sample concentrations provoking erythrocyte lysis, viral HA-assay (human erythrocytes [5]) | sample concentrations provoking erythrocyte lysis, bacterial HA-assay (human erythrocytes [6])
Not active: NA inhibition using FL assay IC50, IAV WSN/33 [1] | 50% inhibitory concentration, S. pneumoniae DSM20566 planktonic growth (S. pneumoniae DSM20566) | NA inhibition using FL assay IC50, S. p. DSM20566 [2] | NA inhibition using FL assay IC50, IAV HK/68 [3] | 50% inhibitory concentration, influenza A virus WSN/33 (influenza A virus WSN/33) | NA inhibition using HA assay MIC, S. p. DSM20566 [4] | 50% inhibitory concentration, influenza A virus HK/68 (influenza A virus HK/68) | NA inhibition using HA assay MIC, IAV 5258/09 (IAV 5258/09 NA) | 50% inhibitory concentration, S. pneumoniae DSM20566 biofilm formation [7] | 50% inhibitory concentration, influenza A virus 8178/09 [8]
